# Counter-ions that a name gives are not always drawn. Like-named read-outs stand apart in the source and are kept apart here.
# Legend:
# [1] = biological target: Rat recombinant PDE10A (rPDE10A2) (Rattus norvegicus (Rat), UniProt Q9QYJ6); assay: In vitro assay PDE10A (SPA, 3H-cAMP); assay type: biochemical
# [2] = system: cAMP and cGMP levels in the rat brain (hippocampus and striatum); settings: in vivo
# [3] = system: Apomorphine-induced agitation in rats; assay: Inhibition of apomorphine-induced agitation in rats in combination with MP-10; assay type: in vivo, rat; settings: SC, MP-10 (0.63 mg/kg) + apomorphine (1.0 mg/kg) i.v.
# Protocol: Inhibition of Apomorphine-induced Agitation in Rats in combination with MP-10 but the animals were simultaneously challenged with MP-10 (0.63 mg/kg) in addition to apomorphine (1.0 mg/kg) via one injection (2 ml/kg, i.v.), at a fixed time interval (standard 1 h) after s.c. or p.o. dosing of test compound or solvent. Twelve times, every 5 min, the intensity of agitation was scored 0 to 3.
# [4] = system: d-Amphetamine-induced hyperlocomotion in rats; assay: d-Amphetamine-induced hyperlocomotion in rats: potentiation of the effect of MP-10; assay type: in vivo, rat; settings: SC, d-amphetamine (1.25 mg/kg, s.c.) + MP-10 (2.5 mg/kg, s.c.)
# [5] = system: d-Amphetamine-induced hyperlocomotion in rats; assay: d-Amphetamine-induced hyperlocomotion in rats: MP-10 or B-1a alone (FIGS. 6-8); assay type: in vivo, rat
# [6] = system: cGMP levels in the rat brain; settings: for incr vs contr (pmol cGMP/ml) (measured): increase versus control
# [7] = system: Apomorphine-induced agitation in rats; assay: Inhibition of apomorphine-induced agitation in rats in combination with Compound A and Compound B (FIGS. 4, 5); assay type: in vivo, rat; settings: -1 h
# [8] = system: d-Amphetamine-induced hyperlocomotion in rats; assay: Inhibition of d-amphetamine-induced hyperlocomotion in rats in combination with Compound A and Compound B (FIGS. 9, 10); assay type: in vivo, rat; settings: B-1a 0.63-5.0 mg/kg s.c., -1 h
# [9] = system: Apomorphine-induced agitation in rats; assay: Inhibition of apomorphine-induced agitation in rats (APO); settings: for Dose at max effect / Max effect (lowest median cumulative agitation score) / LAD (lowest active dose): SC; for Max effect (lowest median cumulative agitation score): at the dose at max effect; for LAD (lowest active dose): lowest dose at which >=67% tested animals respond
# [10] = system: Apomorphine-induced agitation in rats; assay: Apomorphine-induced agitation: MP-10 (s.c.) dose-response with co-administered B-1a (FIGS. 1-3); assay type: in vivo, rat
# [11] = biological target: T1, PDE2 (Rattus norvegicus (Rat), UniProt Q01062); assay: Potentiation of in vivo [3H]B-1a binding to PDE2 by MP-10 (ex vivo autoradiography)
# T1 sequence (Q01062 whole entry): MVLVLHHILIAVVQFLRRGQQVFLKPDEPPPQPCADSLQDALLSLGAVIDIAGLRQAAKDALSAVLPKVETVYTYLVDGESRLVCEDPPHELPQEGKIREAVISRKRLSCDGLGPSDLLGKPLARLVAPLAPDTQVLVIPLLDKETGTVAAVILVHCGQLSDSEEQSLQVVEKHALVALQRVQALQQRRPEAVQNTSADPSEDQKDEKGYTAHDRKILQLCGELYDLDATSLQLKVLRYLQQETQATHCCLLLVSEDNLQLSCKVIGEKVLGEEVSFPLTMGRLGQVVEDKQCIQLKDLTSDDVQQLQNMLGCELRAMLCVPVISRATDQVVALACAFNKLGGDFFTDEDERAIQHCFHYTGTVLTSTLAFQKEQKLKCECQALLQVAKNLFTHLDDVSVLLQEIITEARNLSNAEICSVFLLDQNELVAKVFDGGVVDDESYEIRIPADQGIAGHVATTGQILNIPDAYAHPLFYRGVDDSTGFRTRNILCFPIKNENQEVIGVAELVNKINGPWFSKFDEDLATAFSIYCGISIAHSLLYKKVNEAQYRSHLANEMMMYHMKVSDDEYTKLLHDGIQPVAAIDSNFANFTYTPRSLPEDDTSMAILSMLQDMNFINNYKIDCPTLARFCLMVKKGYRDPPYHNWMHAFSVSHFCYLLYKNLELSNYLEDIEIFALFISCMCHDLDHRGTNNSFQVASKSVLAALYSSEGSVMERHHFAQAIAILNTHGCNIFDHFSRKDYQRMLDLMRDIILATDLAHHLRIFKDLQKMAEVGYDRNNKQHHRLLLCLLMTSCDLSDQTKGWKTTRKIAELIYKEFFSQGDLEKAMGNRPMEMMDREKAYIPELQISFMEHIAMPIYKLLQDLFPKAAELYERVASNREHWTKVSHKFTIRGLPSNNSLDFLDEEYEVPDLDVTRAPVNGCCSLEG
# [12] = biological target: T1, PDE2; settings: rat brain sections
# [13] = biological target: Human recombinant PDE2A (hPDE2A) (Homo sapiens (Human), UniProt O00408); assay: In vitro assay PDE2A (SPA, 3H-cGMP); assay type: biochemical; settings: -log IC50 expressed in mol/L
# Sequence of Human recombinant PDE2A (hPDE2A) (O00408 whole entry): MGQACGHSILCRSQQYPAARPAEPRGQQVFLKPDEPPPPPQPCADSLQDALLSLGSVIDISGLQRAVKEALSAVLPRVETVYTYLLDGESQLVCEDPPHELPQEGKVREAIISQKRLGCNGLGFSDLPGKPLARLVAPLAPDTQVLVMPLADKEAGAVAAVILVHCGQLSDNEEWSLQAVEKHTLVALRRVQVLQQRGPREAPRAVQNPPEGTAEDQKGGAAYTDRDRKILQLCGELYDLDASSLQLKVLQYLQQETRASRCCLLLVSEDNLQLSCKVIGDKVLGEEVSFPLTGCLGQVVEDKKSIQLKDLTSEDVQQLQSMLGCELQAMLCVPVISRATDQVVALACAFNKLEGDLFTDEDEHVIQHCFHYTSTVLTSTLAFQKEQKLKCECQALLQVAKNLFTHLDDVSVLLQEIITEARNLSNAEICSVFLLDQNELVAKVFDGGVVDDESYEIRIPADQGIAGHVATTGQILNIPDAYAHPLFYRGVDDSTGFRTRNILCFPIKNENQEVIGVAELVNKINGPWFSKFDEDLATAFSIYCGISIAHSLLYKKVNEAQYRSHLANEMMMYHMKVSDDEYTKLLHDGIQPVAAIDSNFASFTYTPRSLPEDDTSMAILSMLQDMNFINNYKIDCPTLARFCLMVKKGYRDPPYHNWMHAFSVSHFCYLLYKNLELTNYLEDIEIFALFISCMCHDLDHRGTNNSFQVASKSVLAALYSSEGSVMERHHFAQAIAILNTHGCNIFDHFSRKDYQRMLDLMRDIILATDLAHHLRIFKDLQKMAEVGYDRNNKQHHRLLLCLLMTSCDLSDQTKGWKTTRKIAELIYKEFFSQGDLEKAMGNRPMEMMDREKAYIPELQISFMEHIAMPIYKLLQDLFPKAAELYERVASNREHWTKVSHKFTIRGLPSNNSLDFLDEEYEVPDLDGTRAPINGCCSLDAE
# Sequence of Rat recombinant PDE10A (rPDE10A2) (Q9QYJ6 whole entry): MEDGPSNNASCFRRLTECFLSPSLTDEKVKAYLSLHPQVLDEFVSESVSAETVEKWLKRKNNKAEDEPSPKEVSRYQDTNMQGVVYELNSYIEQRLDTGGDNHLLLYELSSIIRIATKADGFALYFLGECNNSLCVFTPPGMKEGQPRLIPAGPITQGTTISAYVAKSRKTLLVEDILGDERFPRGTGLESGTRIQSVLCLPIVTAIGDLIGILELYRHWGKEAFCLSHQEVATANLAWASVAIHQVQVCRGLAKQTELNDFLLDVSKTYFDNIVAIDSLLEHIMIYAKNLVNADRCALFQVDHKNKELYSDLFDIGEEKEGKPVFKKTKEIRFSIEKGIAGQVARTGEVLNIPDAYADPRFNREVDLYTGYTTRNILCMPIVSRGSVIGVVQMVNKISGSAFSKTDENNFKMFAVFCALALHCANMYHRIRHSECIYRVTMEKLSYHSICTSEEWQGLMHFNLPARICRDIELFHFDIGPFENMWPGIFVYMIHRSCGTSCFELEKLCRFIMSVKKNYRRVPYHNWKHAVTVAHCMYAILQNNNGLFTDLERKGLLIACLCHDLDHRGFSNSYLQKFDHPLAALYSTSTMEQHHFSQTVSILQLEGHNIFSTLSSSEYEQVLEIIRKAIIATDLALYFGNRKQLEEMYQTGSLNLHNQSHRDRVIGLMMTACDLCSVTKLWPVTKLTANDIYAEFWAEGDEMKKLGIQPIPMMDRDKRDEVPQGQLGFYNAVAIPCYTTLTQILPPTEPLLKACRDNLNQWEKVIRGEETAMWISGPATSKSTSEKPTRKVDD
structure (smiles),measurement,setting,value
CCCCOc1cncc(-c2nnc3c(C)nc4ccc(CN(C)C)cc4n23)c1 [Compound B-27],PIC50 PDE10,[1],5.03
same,Hippocampus cAMP (% of Control),[2],122 ± 10 % of Control
same,Hippocampus cGMP (% of Control),[2],104 ± 32 % of Control
same,Striatum cAMP (% of Control),[2],89 ± 6 % of Control
same,Striatum cGMP (% of Control),[2],128 ± 26 % of Control
same,Inh. of agitation < 10 Effect (cumulative agitation score),"[3]; Time 60, dose 10",14
same,Distance Total <2500 cm Effect,"[4]; Time -60, dose 2.5",4145 cm
same,Distance Total <2500 cm Effect,"[4]; Time -60, dose 10",2500 cm
"CCCCOc1cncc(-c2nnc3c(C)nc4ccc(CN5CCOCC5)cc4n23)c1 [Compound B-1a, 1-(5-Butoxypyridin-3-yl)-4-methyl-8-(morpholin-4-ylmethyl) [1,2,4]triazolo[4,3-a]quinoxaline hydrochloride]",Inh. of agitation < 10 Effect (cumulative agitation score),"[3]; Time 60, dose 0.63",18
same,Inh. of agitation < 10 Effect (cumulative agitation score),"[3]; Time 60, dose 1.25",10
same,Inh. of agitation < 10 Effect (cumulative agitation score),"[3]; Time 60, dose 2.5",11
same,Inh. of agitation < 10 Effect (cumulative agitation score),"[3]; Time 60, dose 5",6
same,Inh. of agitation < 10 Effect (cumulative agitation score),"[3]; Time 60, dose 10",7
same,Inh. of agitation < 10 Effect (cumulative agitation score),"[3]; Time 60, dose 40",1
same,Distance Total <2500 cm Effect,"[4]; Time -60, dose 0.31",3066 cm
same,Distance Total <2500 cm Effect,"[4]; Time -60, dose 0.63",2525 cm
same,Distance Total <2500 cm Effect,"[4]; Time -60, dose 1.25",1664 cm
same,Distance Total <2500 cm Effect,"[4]; Time -60, dose 2.5",1659 cm
same,Distance Total <2500 cm Effect,"[4]; Time -60, dose 5",1281 cm
same,Distance Total <2500 cm Effect,"[4]; Time -60, dose 10",727.6 cm
same,"effect against d-amphetamine-induced hyperlocomotion, alone","[5]; 40 mg/kg s.c., 1 h",ineffective per se
same,incr vs contr (pmol cGMP/ml) (measured),[6]; 2.5 mpk,5.4 pmol cGMP/ml
same,incr vs contr (pmol cGMP/ml) (measured),[6]; 10 mpk,9.7 pmol cGMP/ml
same,effect on apomorphine-induced agitation combined with Compound A or Compound B,"[7]; B-1a 5.0 mg/kg s.c., PDE10-i 2.5 mg/kg s.c.",significantly potentiated the effect of both PDE10-is
same,effect on apomorphine-induced agitation combined with the solvent of the PDE10-is,[7]; B-1a 0.63-5.0 mg/kg s.c.,did not affect apomorphine-induced agitation
same,effect on d-amphetamine-induced hyperlocomotion combined with the solvent of the PDE10-is,[8],ineffective against the d-amphetamine-induced hyperlocomotion
same,effect on d-amphetamine-induced hyperlocomotion combined with Compound A or Compound B,[8]; PDE10-i 2.5 mg/kg s.c.,potentiated the effect of both PDE10-is
same,Dose at max effect,[9],40
same,Max effect (lowest median cumulative agitation score),[9],23
same,LAD (lowest active dose),[9],>40
same,"effect against apomorphine-induced agitation, administered alone","[9]; without MP-10, at the tested doses",ineffective against apomorphine
"Cn1cc(-c2ccncc2)c(-c2ccc(OCc3ccc4ccccc4n3)cc2)n1 [MP-10, 2-{[4-(1-methyl-4-pyridin-4-yl-1H-pyrazol-3-yl)phenoxy]methyl}quinoline]",ED50,"[5]; Rattus norvegicus, sc, read-out: ED50 for reducing d-amphetamine-induced hyperlocomotion to a distance <1000 cm, MP-10 (-1 h, s.c.) alone, historical data",> 40 mg/kg
same,"effect on d-amphetamine-induced hyperlocomotion, alone",[5]; up to 40 mg/kg s.c.,almost never achieves values <2500 cm
same,effect on apomorphine-induced agitation (median score),"[10]; MP-10 -1 h, s.c., with B-1a or solvent",dose-dependently inhibited agitation
same,median agitation scores <10,"[10]; MP-10 up to 10 mg/kg, co-administered B-1a <=0.63 mg/kg",not obtained
same,mean nmol cGMP/ml,[6]; 2.5 mpk,8.7 nmol cGMP/ml
same,fold increase,"[6]; cGMP vs vehicle, 2.5 mpk",1.4
same,incr vs contr (pmol cGMP/ml) (measured),[6]; 2.5 mpk,2.4 pmol cGMP/ml
same,"in vivo [3H]B-1a binding expressed as % of binding in vehicle-treated rats, AVG",[11]; dose MP-10 0.63 mpk,80%
same,"in vivo [3H]B-1a binding expressed as % of binding in vehicle-treated rats, AVG",[11]; dose MP-10 2.5 mpk,302%
same,"in vivo [3H]B-1a binding expressed as % of binding in vehicle-treated rats, AVG",[11]; dose MP-10 10 mpk,501%
same,"in vivo [3H]B-1a binding expressed as % of binding in vehicle-treated rats, AVG",[11]; dose MP-10 40 mpk,739%
O=P1(O)OCC2O[C@@H](n3cnc4ccccc43)[C@H](O)C2O1 (stereo partly shown) [cBIMP],effect on specific binding of [3H]B-1a,[12],increase the specific binding
CCCCOc1ccc(Cl)c(-c2nnc3c(C)nc4ccc(CN(C)C)cc4n23)c1 [Compound B-11],PIC50 PDE10,[1],5.67
same,Hippocampus cAMP (% of Control),[2],117 ± 20 % of Control
same,Hippocampus cGMP (% of Control),[2],150 ± 42 % of Control
same,Striatum cAMP (% of Control),[2],88 ± 12 % of Control
same,Striatum cGMP (% of Control),[2],121 ± 20 % of Control
same,Inh. of agitation < 10 Effect (cumulative agitation score),"[3]; Time 60, dose 2.5",17
same,Inh. of agitation < 10 Effect (cumulative agitation score),"[3]; Time 60, dose 10",7
same,Distance Total <2500 cm Effect,"[4]; Time -60, dose 2.5",3494 cm
same,Distance Total <2500 cm Effect,"[4]; Time -60, dose 10",1960 cm
"Cc1nc2ccc(CN3CCOCC3)cc2n2c(-c3ccccc3Cl)nnc12 [Compound B-3, 1-(2-Chlorophenyl)-4-methyl-8-(morpholin-4-ylmethyl)[1,2,4]triazolo[4,3-a]-quinoxaline]",pIC50 PDE2,[13],8.64
same,PIC50 PDE10,[1]; -log IC50 expressed in mol/L,7.47
same,Dose at max effect,[9],5
same,Max effect (lowest median cumulative agitation score),[9],14
same,LAD (lowest active dose),[9],5
COC(=O)[C@@H](N)CCCNC(=N)N[N+](=O)[O-] [L-NAME],effect of pre-treatment on potentiation of [3H]B-1a binding by MP-10,[11]; pre-treatment,prevented the potentiation

# From patent publication US9669035B2, “Combinations comprising PDE 2 inhibitors such as 1-aryl-4-methyl-[1,2,4]triazolo-[4,3-A]]quinoxaline compounds and PDE 10 inhibitors for use in the treatment of neurological of metabolic disorders” (Janssen Pharmaceutica NV, priority 2012, dated 2017)
